Test results reported in ChEMBL document CHEMBL5678816, “A Next-Generation TRK Kinase Inhibitor Overcomes Acquired Resistance to Prior TRK Kinase Inhibition in Patients with TRK Fusion-Positive Solid Tumors” (Cancer Discov, 2017).
Calls of active or inactive are those of the source. The calls are words filed in the database; no cut-off is given here.

How the values were obtained:
[1] = Inhibition of N-terminal 3FLAG-tagged ETV6-TRKC G696A mutant (unknown origin) expressed in NIH3T3 cells assessed as ERK1/2 phosphorylation incubated for 1 hrs by flow cytometric analysis; type: cell-based, Homo sapiens
[2] = Inhibition of cell proliferation in ETV6-NTRK3 fusion positive human MO-91 cells incubated for 72 hrs by DAPI staining based analysis; type: functional; details: MO-91, 72 h
LC2 = assay: Inhibition of cell proliferation in human LC2 cells upto 10 umol/L incubated for 72 hrs by DAPI staining based analysis; type: functional; details: dose <= 10.0 µmol/L
D283 Med = assay: Inhibition of cell proliferation in human D283 Med cells upto 10 umol/L incubated for 72 hrs by DAPI staining based analysis; type: functional; details: dose <= 10.0 µmol/L
SK-LMS-1 = assay: Inhibition of cell proliferation in human SK-LMS-1 cells upto 10 umol/L incubated for 72 hrs by DAPI staining based analysis; type: functional; details: dose <= 10.0 µmol/L
SK-N-DZ = assay: Inhibition of cell proliferation in human SK-N-DZ cells upto 10 umol/L incubated for 72 hrs by DAPI staining based analysis; type: functional; details: dose <= 10.0 µmol/L
SNU-16 = assay: Inhibition of cell proliferation in human SNU-16 cells upto 10 umol/L incubated for 72 hrs by DAPI staining based analysis; type: functional; details: dose <= 10.0 µmol/L
SU-DHL10 = assay: Inhibition of cell proliferation in human SU-DHL-10 cells upto 10 umol/L incubated for 72 hrs by DAPI staining based analysis; type: functional; details: dose <= 10.0 µmol/L
[3] = AUC in pediatric patient with recurrent ETV6-NTRK3-rearranged infantile fibrosarcoma at 100 mg administered twice a day as liquid formulation for 29 day by LC-MS/MS analysis; type: ADME; details: human, in vivo
[4] = target: Insulin receptor (Homo sapiens) (UniProt P06213); assay: Inhibition of IR (unknown origin) at 1 uM in presence of ATP relative to control; values are per cent of control
Sequence of Insulin receptor (Homo sapiens) (P06213 28-758 limits assumed): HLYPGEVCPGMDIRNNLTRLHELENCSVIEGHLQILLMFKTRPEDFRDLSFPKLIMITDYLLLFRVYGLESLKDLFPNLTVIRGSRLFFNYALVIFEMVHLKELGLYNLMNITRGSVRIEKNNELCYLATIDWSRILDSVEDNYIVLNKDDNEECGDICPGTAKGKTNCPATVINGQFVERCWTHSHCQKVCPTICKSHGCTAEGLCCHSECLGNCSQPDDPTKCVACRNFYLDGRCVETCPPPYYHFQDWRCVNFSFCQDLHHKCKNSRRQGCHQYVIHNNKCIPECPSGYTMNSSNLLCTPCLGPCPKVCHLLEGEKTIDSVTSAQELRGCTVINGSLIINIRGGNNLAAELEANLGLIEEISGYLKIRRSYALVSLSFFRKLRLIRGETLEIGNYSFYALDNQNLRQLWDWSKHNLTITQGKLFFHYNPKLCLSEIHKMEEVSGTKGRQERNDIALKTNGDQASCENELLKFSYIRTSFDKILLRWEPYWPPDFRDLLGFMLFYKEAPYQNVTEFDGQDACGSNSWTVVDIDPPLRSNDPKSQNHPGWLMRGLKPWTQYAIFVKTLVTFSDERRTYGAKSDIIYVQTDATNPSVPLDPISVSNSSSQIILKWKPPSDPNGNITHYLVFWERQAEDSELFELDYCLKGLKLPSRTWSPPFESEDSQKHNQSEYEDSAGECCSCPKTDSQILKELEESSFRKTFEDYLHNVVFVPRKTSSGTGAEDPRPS
Sequence of Insulin receptor (Homo sapiens) (P06213 763-1382 limits assumed): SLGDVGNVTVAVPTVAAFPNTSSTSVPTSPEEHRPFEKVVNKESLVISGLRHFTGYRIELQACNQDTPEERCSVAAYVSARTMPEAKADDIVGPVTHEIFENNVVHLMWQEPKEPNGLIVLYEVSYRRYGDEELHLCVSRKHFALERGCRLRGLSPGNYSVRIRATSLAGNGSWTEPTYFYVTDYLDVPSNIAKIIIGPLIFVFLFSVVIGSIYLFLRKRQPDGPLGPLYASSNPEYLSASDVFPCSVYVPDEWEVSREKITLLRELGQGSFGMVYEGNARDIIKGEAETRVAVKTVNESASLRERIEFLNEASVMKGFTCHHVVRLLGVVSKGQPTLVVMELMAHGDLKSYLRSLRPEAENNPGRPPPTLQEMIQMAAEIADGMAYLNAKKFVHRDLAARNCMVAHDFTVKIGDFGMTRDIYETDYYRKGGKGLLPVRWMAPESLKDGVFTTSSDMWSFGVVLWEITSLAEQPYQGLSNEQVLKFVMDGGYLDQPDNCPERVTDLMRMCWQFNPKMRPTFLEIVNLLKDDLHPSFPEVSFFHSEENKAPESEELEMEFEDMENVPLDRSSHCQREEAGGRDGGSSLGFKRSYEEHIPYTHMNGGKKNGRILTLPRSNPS

[5] = target: Tyrosine-protein kinase CSK (Homo sapiens) (UniProt P41240); assay: Inhibition of CSK (unknown origin) at 1 uM in presence of ATP relative to control; values are per cent of control
Sequence of Tyrosine-protein kinase CSK (Homo sapiens) (P41240 2-450 limits assumed): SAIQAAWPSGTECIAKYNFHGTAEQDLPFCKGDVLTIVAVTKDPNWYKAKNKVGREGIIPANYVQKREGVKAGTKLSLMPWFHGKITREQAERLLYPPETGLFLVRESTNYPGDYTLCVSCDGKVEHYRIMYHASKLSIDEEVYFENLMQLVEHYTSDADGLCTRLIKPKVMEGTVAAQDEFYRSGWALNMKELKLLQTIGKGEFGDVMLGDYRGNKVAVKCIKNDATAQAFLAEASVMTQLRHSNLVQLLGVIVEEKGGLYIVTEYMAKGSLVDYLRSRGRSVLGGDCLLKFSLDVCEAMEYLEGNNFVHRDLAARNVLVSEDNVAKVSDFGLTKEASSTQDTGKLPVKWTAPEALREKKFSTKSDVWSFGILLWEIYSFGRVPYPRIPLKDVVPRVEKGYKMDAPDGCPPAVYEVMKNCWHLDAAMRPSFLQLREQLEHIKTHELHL

[6] = target: Tyrosine-protein kinase Fer (Homo sapiens) (UniProt P16591); assay: Inhibition of Fer (unknown origin) at 1 uM in presence of ATP relative to control; values are per cent of control
Sequence of Tyrosine-protein kinase Fer (Homo sapiens) (P16591 whole entry, looked up): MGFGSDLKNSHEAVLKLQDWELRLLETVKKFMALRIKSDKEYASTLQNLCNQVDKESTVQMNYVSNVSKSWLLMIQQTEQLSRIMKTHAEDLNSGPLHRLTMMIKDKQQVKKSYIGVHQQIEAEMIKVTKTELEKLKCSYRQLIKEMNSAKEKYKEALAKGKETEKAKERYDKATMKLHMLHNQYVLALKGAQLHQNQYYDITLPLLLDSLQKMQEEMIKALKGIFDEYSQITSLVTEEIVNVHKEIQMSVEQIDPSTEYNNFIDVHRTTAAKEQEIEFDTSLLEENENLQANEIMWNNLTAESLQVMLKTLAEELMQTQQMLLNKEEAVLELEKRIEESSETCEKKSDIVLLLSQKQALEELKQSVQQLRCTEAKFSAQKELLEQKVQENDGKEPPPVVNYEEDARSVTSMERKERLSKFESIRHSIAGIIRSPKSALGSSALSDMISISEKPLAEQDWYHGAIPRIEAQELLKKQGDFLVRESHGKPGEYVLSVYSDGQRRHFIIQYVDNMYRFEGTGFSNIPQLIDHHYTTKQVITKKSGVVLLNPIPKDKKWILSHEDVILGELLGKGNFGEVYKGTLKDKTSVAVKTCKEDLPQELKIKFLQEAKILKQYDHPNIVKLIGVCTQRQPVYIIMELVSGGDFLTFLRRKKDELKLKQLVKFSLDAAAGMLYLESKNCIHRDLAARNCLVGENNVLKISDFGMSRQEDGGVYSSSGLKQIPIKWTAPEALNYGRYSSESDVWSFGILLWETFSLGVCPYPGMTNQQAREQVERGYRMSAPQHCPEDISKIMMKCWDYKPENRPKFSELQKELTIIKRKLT

[7] = target: RAC-beta serine/threonine-protein kinase (Homo sapiens) (UniProt P31751); assay: Inhibition of AKT2 (unknown origin) at 1 uM in presence of ATP relative to control; values are per cent of control
Sequence of RAC-beta serine/threonine-protein kinase (Homo sapiens) (P31751 whole entry): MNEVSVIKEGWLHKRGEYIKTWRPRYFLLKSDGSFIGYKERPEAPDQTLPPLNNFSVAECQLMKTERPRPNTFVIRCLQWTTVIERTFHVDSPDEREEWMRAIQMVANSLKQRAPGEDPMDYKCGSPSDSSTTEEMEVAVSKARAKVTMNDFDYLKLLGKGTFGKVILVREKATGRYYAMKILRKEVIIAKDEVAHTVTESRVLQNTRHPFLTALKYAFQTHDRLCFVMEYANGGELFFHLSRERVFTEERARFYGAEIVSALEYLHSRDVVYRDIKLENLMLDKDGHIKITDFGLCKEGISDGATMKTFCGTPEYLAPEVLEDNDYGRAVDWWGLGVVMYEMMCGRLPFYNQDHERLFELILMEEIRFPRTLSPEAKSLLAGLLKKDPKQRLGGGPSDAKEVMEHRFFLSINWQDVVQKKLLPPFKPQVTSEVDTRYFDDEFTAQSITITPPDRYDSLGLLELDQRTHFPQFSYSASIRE

[8] = target: Serine/threonine-protein kinase Sgk3 (Homo sapiens) (UniProt Q96BR1); assay: Inhibition of SGK3 (unknown origin) at 1 uM in presence of ATP relative to control; values are per cent of control
[9] = target: Serine/threonine-protein kinase Chk2 (Homo sapiens) (UniProt O96017); assay: Inhibition of CHK2 (unknown origin) at 1 uM in presence of ATP relative to control; values are per cent of control
Sequence of Serine/threonine-protein kinase Chk2 (Homo sapiens) (O96017 whole entry): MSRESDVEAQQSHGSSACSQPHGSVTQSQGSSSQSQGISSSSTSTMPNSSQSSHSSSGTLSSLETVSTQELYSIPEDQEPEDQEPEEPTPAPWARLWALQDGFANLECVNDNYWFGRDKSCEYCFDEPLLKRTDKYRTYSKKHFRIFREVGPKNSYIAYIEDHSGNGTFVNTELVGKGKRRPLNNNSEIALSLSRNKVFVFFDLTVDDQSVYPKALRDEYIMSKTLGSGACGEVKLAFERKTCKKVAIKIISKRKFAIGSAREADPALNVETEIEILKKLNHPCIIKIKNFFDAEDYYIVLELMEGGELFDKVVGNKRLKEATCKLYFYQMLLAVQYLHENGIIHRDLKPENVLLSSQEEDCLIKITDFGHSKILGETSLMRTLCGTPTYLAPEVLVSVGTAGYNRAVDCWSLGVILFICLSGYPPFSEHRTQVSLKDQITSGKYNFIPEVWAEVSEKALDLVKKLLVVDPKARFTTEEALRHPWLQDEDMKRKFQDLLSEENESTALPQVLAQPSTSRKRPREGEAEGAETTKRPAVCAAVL

[10] = target: Mitogen-activated protein kinase 10 (Homo sapiens) (UniProt P53779); assay: Inhibition of JNK3 (unknown origin) at 1 uM in presence of ATP relative to control; values are per cent of control
[11] = target: Serine/threonine-protein kinase PAK 6 (Homo sapiens) (UniProt Q9NQU5); assay: Inhibition of PAK6 (unknown origin) at 1 uM in presence of ATP relative to control; values are per cent of control
[12] = target: Mitogen-activated protein kinase kinase kinase 9 (Homo sapiens) (UniProt P80192); assay: Inhibition of MLK1 (unknown origin) at 1 uM in presence of ATP relative to control; values are per cent of control
[13] = target: Homeodomain-interacting protein kinase 1 (Homo sapiens) (UniProt Q86Z02); assay: Inhibition of HIPK1 (unknown origin) at 1 uM in presence of ATP relative to control; values are per cent of control
[14] = target: Ephrin type-A receptor 3 (Homo sapiens) (UniProt P29320); assay: Inhibition of EphA3 (unknown origin) at 1 uM in presence of ATP relative to control; values are per cent of control
[15] = target: Ephrin type-A receptor 4 (Homo sapiens) (UniProt P54764); assay: Inhibition of EphA4 (unknown origin) at 1 uM in presence of ATP relative to control; values are per cent of control
[16] = target: Fibroblast growth factor receptor 2 (Homo sapiens) (UniProt P21802); assay: Inhibition of FGFR2 (unknown origin) at 1 uM in presence of ATP relative to control; values are per cent of control
[17] = target: RAF proto-oncogene serine/threonine-protein kinase (Homo sapiens) (UniProt P04049); assay: Inhibition of C-RAF (unknown origin) at 1 uM in presence of ATP relative to control; values are per cent of control
[18] = target: Interleukin-1 receptor-associated kinase 4 (Homo sapiens) (UniProt Q9NWZ3); assay: Inhibition of IRAK4 (unknown origin) at 1 uM in presence of ATP relative to control; values are per cent of control
Sequence of Interleukin-1 receptor-associated kinase 4 (Homo sapiens) (Q9NWZ3 whole entry): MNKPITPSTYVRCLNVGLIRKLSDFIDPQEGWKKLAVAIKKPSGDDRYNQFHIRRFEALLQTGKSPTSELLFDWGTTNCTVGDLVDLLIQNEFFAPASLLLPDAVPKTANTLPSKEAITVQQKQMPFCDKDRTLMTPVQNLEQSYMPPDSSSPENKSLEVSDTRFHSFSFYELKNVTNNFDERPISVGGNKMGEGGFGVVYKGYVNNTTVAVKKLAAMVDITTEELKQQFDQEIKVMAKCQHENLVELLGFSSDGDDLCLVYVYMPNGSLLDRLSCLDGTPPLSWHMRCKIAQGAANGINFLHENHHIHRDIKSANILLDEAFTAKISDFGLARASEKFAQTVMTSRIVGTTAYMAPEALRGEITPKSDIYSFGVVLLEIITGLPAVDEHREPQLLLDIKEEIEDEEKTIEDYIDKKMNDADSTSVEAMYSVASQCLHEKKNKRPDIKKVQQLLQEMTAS

[19] = target: Calcium/calmodulin-dependent protein kinase type II subunit beta (Homo sapiens) (UniProt Q13554); assay: Inhibition of CAMK2b (unknown origin) at 1 uM in presence of ATP relative to control; values are per cent of control
[20] = target: Protein kinase C delta type (Homo sapiens) (UniProt Q05655); assay: Inhibition of PKCdelta (unknown origin) at 1 uM in presence of ATP relative to control; values are per cent of control
Homo sapiens = species: Homo sapiens; assay: Inhibition of PKCgamma (unknown origin) at 1 uM in presence of ATP relative to control; values are per cent of control
[21] = target: Casein kinase I isoform gamma-1 (Homo sapiens) (UniProt Q9HCP0); assay: Inhibition of CK1gamma1 (unknown origin) at 1 uM in presence of ATP relative to control; values are per cent of control
Sequence of Casein kinase I isoform gamma-1 (Homo sapiens) (Q9HCP0 whole entry, looked up, canonical isoform): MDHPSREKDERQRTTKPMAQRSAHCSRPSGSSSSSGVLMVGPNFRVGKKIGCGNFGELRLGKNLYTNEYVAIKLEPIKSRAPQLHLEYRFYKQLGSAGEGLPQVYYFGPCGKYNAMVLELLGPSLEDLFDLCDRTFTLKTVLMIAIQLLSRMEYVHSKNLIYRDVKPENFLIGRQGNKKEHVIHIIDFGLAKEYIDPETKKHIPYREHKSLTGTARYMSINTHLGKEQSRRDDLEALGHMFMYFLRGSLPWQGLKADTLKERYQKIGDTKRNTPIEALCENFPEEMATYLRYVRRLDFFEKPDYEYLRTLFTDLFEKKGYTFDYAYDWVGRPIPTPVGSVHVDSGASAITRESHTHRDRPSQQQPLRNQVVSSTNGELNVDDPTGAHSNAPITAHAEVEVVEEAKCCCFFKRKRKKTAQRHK

[22] = target: Mitogen-activated protein kinase 9 (Homo sapiens) (UniProt P45984); assay: Inhibition of JNK2alpha2 (unknown origin) at 1 uM in presence of ATP relative to control; values are per cent of control
Sequence of Mitogen-activated protein kinase 9 (Homo sapiens) (P45984 whole entry, looked up): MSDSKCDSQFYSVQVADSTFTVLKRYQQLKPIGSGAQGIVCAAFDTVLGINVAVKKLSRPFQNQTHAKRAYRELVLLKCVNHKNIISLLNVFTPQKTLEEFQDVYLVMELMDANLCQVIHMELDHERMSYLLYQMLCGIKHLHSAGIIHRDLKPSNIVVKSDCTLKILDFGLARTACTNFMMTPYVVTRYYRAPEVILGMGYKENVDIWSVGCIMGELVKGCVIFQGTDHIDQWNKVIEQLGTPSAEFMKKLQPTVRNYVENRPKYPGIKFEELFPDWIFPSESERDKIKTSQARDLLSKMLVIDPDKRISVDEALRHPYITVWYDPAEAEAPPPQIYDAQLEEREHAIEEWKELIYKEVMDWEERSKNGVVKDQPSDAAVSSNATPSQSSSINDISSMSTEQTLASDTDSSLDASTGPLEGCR

**Q.** For `C[C@@H]1CCc2ncc(F)cc2[C@H]2CCCN2c2ccn3ncc(c3n2)C(=O)N1` [SELITRECTINIB], which IC50 [1] is on record?
**A.** The IC50 was 0.0175 µM.

**Q.** What about the IC50 [2] of the same compound?
**A.** The IC50 was ≤ 0.005 µM.

**Q.** And the inhibition (LC2)?
**A.** The inhibition was “inactive”.

**Q.** And the inhibition (D283 Med)?
**A.** Its inhibition is “inactive”.

**Q.** And the inhibition (SK-LMS-1)?
**A.** Its inhibition is “inactive”.

**Q.** And the inhibition (SK-N-DZ)?
**A.** Its inhibition is “inactive”.

**Q.** What about the inhibition (SNU-16) of the same compound?
**A.** Its inhibition is “inactive”.

**Q.** And the inhibition (SU-DHL10)?
**A.** Its inhibition is “inactive”.

**Q.** What about the AUC at 696 h [3] of the same compound?
**A.** Its AUC at 696 h is 4410 ng·h/mL.

**Q.** And the residual activity [4]?
**A.** The residual activity was 92%.

**Q.** What about the residual activity [5] of the same compound?
**A.** The residual activity was 112%.

**Q.** What about the residual activity [6] of the same compound?
**A.** Its residual activity is 91%.

**Q.** And the residual activity [7]?
**A.** The residual activity was 121%.

**Q.** What about the residual activity [8] of the same compound?
**A.** Its residual activity is 114%.

**Q.** And the residual activity [9]?
**A.** Its residual activity is 99.5%.

**Q.** What about the residual activity [10] of the same compound?
**A.** The residual activity was 109%.

**Q.** And the residual activity [11]?
**A.** Its residual activity is 99%.

**Q.** And the residual activity [12]?
**A.** Its residual activity is 96.5%.

**Q.** What about the residual activity [13] of the same compound?
**A.** Its residual activity is 106%.

**Q.** And the residual activity [14]?
**A.** The residual activity was 104%.

**Q.** And the residual activity [15]?
**A.** The residual activity was 102%.

**Q.** And the residual activity [16]?
**A.** Its residual activity is 96.5%.

**Q.** What about the residual activity [17] of the same compound?
**A.** The residual activity was 92.5%.

**Q.** What about the residual activity [18] of the same compound?
**A.** The residual activity was 95%.

**Q.** What about the residual activity [19] of the same compound?
**A.** The residual activity was 100%.

**Q.** And the residual activity [20]?
**A.** The residual activity was 108%.

**Q.** What about the residual activity (Homo sapiens) of the same compound?
**A.** Its residual activity is 97.5%.

**Q.** And the residual activity [21]?
**A.** The residual activity was 112%.

**Q.** And the residual activity [22]?
**A.** The residual activity was 100%.
